Source: article PMC9873282, “Design, synthesis and evaluation of quinoline-O-carbamate derivatives as multifunctional agents for the treatment of Alzheimer’s disease” (Journal of Enzyme Inhibition and Medicinal Chemistry, 2023)
“And” between values parts separate entries of the source, which are not always exact repeats. Equal values may be shown once. Read-outs that look alike come from different tables or passages of the source.

Legend:
[1] = system: IL-6; assay: IL-6 production in LPS-stimulated BV-2 cells (ELISA); type: cell-based; settings: 1 µM and 2 µM; 1 µg/mL LPS 24 h
Procedure: (§1) Firstly, the cytotoxicity of compounds 3a, 3c, 3e, 3f, 3k, 3m and 3n were tested using CCK8 assay.
(§2) BV-2 cells (2 × 10^5 cells/well) were seeded in a 24-well cell culture plates. The cells were divided into blank control group, model group (1 µg/mL LPS), LPS + 2 µM compound group, LPS + 1 µM compound group. Each drug group was pre-treated with corresponding concentration of drug solution for 8 h. After 8 h, the culture medium was aspirated out. Except for the blank control group, which was added with DMEM medium, the other groups were stimulated with 1 µg/mL LPS for 24 h. Then cell supernatant was aspirated and centrifuged at 3000 rpm for 3 min. The content of NO in cell culture supernatant was determined by Griess method, and the levels of cytokines IL-6 and IL-1β in cell culture supernatant were determined by IL-6 ELISA kit and IL-1β ELISA kit, respectively.

[2] = target: T1, eqBuChE (Equus caballus, UniProt P81908); assay: biochemical; parameters: species or system equine; settings: for IC50: BuChE from equine serum; for SI = IC50 (AChE)/IC50 (BuChE): eeAChE/eqBuChE; for inhibition at 25 µM: read-out: eqBuChE inhibition rate
T1 construct: eqBuChE, from equine serum; purchased Sigma Aldrich; host or cells: equine serum (natural source)
T1 sequence (P81908 whole entry): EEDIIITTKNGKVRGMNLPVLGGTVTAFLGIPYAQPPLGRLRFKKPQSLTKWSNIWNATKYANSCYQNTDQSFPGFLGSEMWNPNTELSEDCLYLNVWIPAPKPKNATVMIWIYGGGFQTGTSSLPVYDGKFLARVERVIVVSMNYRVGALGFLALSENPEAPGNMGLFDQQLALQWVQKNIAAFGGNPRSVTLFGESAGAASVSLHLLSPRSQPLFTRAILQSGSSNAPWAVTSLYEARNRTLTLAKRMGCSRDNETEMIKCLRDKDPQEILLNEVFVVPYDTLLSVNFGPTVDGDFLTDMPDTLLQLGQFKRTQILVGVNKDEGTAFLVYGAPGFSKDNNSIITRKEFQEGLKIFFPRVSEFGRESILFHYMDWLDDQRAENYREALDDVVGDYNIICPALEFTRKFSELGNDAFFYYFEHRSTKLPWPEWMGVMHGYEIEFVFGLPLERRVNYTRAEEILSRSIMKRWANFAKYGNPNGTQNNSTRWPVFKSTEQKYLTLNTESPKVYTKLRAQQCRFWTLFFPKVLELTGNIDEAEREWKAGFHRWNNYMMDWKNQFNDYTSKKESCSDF
Procedure: (§3) The inhibitory activities of the synthesised compounds against eeAChE (from electric eel) and eqBuChE (from equine serum) were tested by the modified Ellman’s method[26]^,[27]. […] The determination of AChE and BuChE inhibitory potency of the synthesised compounds were evaluated by Ellman assay, the detailed procedure referred to our previous work[26]^,[27].

[3] = system: BV-2 cells; assay: Cytotoxicity on BV-2 cells (CCK8 assay); type: cell-based; settings: compounds at 2 µM
Procedure: as §1
BV-2 cells were cultured in DMEM containing 10% foetal bovine serum, 100 U/mL penicillin, 100 U/mL streptomycin, and 1% nonessential amino acid at 37 °C with 5% CO2.
BV-2 cells in logarithmic growth stage were digested and centrifuged, and then resuspended in DMEM medium containing 1% penicillin-streptomycin and 10% foetal bovine serum. The cells was adjusted to 1.2 × 10^4 cells/well, and then seeded evenly in 96-well cell culture plates. The cells were incubated for 36 h at 37 °C with 5% CO2. After incubation, the cells were added to different concentrations (10 and 2 µM) of tested compounds, and incubated for 24 h at 37 °C with 5% CO2. Then, 10 µL CCK-8 solution was added to each well, and incubated for another 1 h at 37 °C with 5% CO2. The OD values were tested at […]. The cell viability (%) = {(ODdrug−ODblank)}/{(ODcontrol−ODblank)} × 100%.

[4] = system: Aβ25-35-induced PC12 cells injury; assay: Neuroprotective effect on Aβ25-35-induced PC12 cells injury (CCK-8); type: cell-based; settings: 25 µM Aβ25-35; model cell viability 57.3%
Procedure: (§4) The neuroprotective effect of compounds 3a, 3c, 3e, 3f, 3k, 3m, and 3n on Aβ25–35-induced PC12 cells injury were evaluated using CCK-8 assay. […] Furthermore, as shown in Figure 12(B), when PC12 cells were exposed to 25 µM Aβ25-35, the cell viability sharply declined to 57.3% (p < 0.01) compared with untreated group.
• Preparation of Aβ25-35 aggregation. Aβ25-35 was purchased from sigma. 1 mg Aβ25-35 was dissolved in 943 µL of sterilised deionised water to obtain 1 mM stock solution, aliquoted, –20 °C preservation. Removing the appropriate volume in a 48-well plate and incubated in a 37 °C incubator for two days to allow its ageing to accumulate and produce neurotoxicity. After aggregation was completed, the solution was diluted with PBS to get 25 µM solution of Aβ25-35 aggregation. • Neuroprotective effects of compounds on Aβ25-35-induced PC12 cells injury
(§5) The PC12 cells during the logarithmic growth phase were digested and centrifuged with pancreatic enzyme solution, the cells were resuspended by adding the prepared media solution, and piped evenly with a pipette to seed in a 96-well cell culture plate (cell concentration adjusted to 2.0 × 10^4 cell·mL^−1). Each well was added 100 µL complete medium was added to each well and incubated at 37 °C and 5% CO2 for 24 h.
After incubation for 24 h, PC12 cells were divided into blank group, control group, Aβ25-35 model group and tested compounds group (5, 10, 20 µM). Then the original medium was discarded, and 100 µL new complete medium were added to PC12 cells, and the tested compounds group was added to 100 µL complete medium containing different concentrations (5, 10, and 20 µM) of tested compounds, incubated for 2 h at 37 °C, 5% CO2 conditions. After incubation for 2 h, 10 µL Aβ25-35 solution was added to the tested compounds groups and model group (the final concentration of Aβ25-35 was 25 µM), and incubated for 24 h at 37 °C, 5% CO2 conditions, 10 µL CCK-8 was added to each well and further incubated for 1 h at 37 °C and 5% CO2. Finally, the OD value was measured at 450 nm using a microplate reader, and each concentration set three wells. The cell survival rate (%) was determined according to the following formula: cell viability (%) = {(ODdrug−ODblank)}/{(ODcontrol−ODblank)}.

[5] = target: T2, eeAChE (Electrophorus electricus, UniProt O42275); assay: biochemical; parameters: species or system electric eel
T2 construct: eeAChE, from the electric eel; purchased Sigma Aldrich; host or cells: electric eel (natural source)
T2 sequence (O42275 24-633): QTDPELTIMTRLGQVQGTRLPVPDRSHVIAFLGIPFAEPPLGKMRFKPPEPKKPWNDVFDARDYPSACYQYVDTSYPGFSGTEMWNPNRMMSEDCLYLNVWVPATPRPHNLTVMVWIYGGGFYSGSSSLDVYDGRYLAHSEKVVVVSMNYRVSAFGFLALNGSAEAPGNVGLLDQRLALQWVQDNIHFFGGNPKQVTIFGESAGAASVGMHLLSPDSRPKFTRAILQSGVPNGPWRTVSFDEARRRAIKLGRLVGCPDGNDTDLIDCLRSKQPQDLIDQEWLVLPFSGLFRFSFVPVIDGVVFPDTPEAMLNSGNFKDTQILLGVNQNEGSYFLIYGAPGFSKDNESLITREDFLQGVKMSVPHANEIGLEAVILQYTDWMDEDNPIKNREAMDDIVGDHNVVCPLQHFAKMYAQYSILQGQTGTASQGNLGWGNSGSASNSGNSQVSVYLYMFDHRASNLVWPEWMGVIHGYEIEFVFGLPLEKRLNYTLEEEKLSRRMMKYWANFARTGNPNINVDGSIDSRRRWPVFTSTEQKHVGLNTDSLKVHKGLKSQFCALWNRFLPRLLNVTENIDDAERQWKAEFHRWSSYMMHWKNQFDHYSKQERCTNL
Procedure: as §3

[6] = system: IL-1β; assay: IL-1β production in LPS-stimulated BV-2 cells (ELISA); type: cell-based; settings: 1 µg/mL LPS 24 h
Procedure: as §1, §2

[7] = system: PC12 cells; assay: Cytotoxicity on PC12 cells; type: cell-based; settings: at concentration below 40 µM
Procedure: as §4, §5

[8] = system: NO; assay: NO release in LPS-stimulated BV-2 cells (Griess method); type: cell-based; settings: 1 µg/mL LPS 24 h
Procedure: as §1, §2

[9] = system: ACh; assay: ACh level in AlCl3-induced zebrafish AD model tissue; type: in vivo; settings: 8 µM; model 7.3, untreated 13.9 pmol/L
Description: . After the behavioural experiments, the 168hpf zebrafish were killed and ground, the tissue were used to test the AChE activity and ACh levels. […] .

[10] = target: T3, hBuChE (Homo sapiens, UniProt P06276); assay: hBuChE reversibility of inhibition (recovery after dilution); type: biochemical
T3 construct: hBuChE, human serum BuChE; purchased Sigma Aldrich; host or cells: human serum (natural source)
T3 sequence (P06276 29-602): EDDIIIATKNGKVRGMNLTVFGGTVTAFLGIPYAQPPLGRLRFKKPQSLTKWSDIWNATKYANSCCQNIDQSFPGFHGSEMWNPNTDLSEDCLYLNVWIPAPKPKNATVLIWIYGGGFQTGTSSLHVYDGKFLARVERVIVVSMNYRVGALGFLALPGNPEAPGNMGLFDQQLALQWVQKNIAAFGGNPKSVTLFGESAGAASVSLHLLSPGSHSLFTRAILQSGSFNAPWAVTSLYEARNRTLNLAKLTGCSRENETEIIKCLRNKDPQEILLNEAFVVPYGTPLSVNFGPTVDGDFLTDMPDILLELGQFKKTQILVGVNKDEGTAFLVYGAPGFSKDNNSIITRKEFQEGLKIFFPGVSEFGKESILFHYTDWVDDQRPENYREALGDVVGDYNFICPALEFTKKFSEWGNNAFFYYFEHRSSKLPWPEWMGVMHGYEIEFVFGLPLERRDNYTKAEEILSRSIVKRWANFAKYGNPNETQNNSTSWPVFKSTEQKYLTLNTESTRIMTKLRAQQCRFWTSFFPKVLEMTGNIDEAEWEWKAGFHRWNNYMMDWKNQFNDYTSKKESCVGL

[11] = AChE from electric eel, read-out: IC50 ± SD eeAChE

## CN(C)C(=O)Oc1ccnc2ccccc12 [Compound 3a, Quinolin-4-yl dimethylcarbamate]
[1]
  levels of IL-6 compared with model group: significantly decreased
[2]; IC50 ± SD eqBuChE
  IC50: 2.83 µM and 2.8 µM
[2]
  SI = IC50 (AChE)/IC50 (BuChE): 3.8
[3]
  cell viability of BV-2 cells: did not show obvious change
[4]
  neuroprotective effect on Aβ25-35-induced PC12 cells injury: did not show significant neuroprotective effects
[5]
  IC50: 10.8 ± 0.33 µM
[6]
  levels of IL-1β compared with model group: did not obviously decrease
[7]
  cytotoxicity on PC12 cells: did not show any cytotoxicity
[8]
  release volume of NO: significantly decreased

## CCN(C)C(=O)Oc1ccnc2ccccc12 [Compound 3c, Quinolin-4-yl ethyl(methyl)carbamate]
[1]
  levels of IL-6 compared with model group: significantly decreased
[2]; IC50 ± SD eqBuChE
  IC50: 1.92 µM and 1.9 µM
[2]
  SI = IC50 (AChE)/IC50 (BuChE): 6.9
[3]
  cell viability of BV-2 cells: did not show obvious change
[4]
  neuroprotective effect on Aβ25-35-induced PC12 cells injury: did not show significant neuroprotective effects
[5]
  IC50: 13.2 ± 0.51 µM
[6]
  levels of IL-1β compared with model group: did not obviously decrease
[7]
  cytotoxicity on PC12 cells: did not show any cytotoxicity
[8]
  release volume of NO: significantly decreased

## CCN(C)C(=O)Oc1cccc2ncccc12 [Compound 3g, Quinolin-5-yl ethyl(methyl)carbamate]
[2]; IC50 ± SD eqBuChE
  IC50: 2.23 µM and 2.2 µM
[2]
  SI = IC50 (AChE)/IC50 (BuChE): 1.4
[5]
  IC50: 3.2 ± 0.05 µM

## O=C(Oc1cccc2ncccc12)N1CCOCC1 [Compound 3h, Quinolin-5-yl morpholine-4-carboxylate]
[2]; read-out: IC50 ± SD eqBuChE
  IC50: 1.76 µM and 1.8 µM
[2]
  SI = IC50 (AChE)/IC50 (BuChE): 7.2
[5]; [11]
  IC50: 12.9 ± 0.07 µM

## CN(C)C(=O)Oc1ccc2ncccc2c1 [Compound 3i, Quinolin-6-yl dimethylcarbamate]
[2]
  inhibition at 25 µM: 13.8 ± 0.61%
[5]
  IC50: 14.1 ± 0.43 µM

## CCN(CC)C(=O)Oc1ccc2ncccc2c1 [Compound 3j, Quinolin-6-yl diethylcarbamate]
[2]; at 25 μM of compounds
  inhibition at 25 µM: 30.7 ± 1.26%
[5]; [11]
  IC50: 12.2 ± 0.19 µM

## CCN(C)C(=O)Oc1ccc2ncccc2c1 [Compound 3k, Quinolin-6-yl ethyl(methyl)carbamate]
[1]
  levels of IL-6 compared with model group: significantly decreased
[2]
  inhibition at 25 µM: 5.8 ± 0.03%
[3]
  cell viability of BV-2 cells: did not show obvious change
[4]
  neuroprotective effect on Aβ25-35-induced PC12 cells injury: significant neuroprotective effects at 10 µM
[5]
  IC50: 10.3 ± 0.58 µM
[6]
  levels of IL-1β compared with model group: significantly decreased
[7]
  cytotoxicity on PC12 cells: did not show any cytotoxicity
[8]
  release volume of NO: significantly decreased

## O=C(Oc1ccc2ncccc2c1)N1CCOCC1 [Compound 3l, Quinolin-6-yl morpholine-4-carboxylate]
[2]; at 25 μM of compounds
  inhibition at 25 µM: 13.8 ± 0.61%
[5]; [11]
  IC50: 17.6 ± 0.61 µM

## CN(C)C(=O)Oc1cccc2cccnc12 [Compound 3m, Quinolin-8-yl dimethylcarbamate]
[1]
  levels of IL-6 compared with model group: significantly decreased
[2]
  inhibition at 25 µM: 7.3 ± 0.05%
[3]
  cell viability of BV-2 cells: did not show obvious change
[4]
  neuroprotective effect on Aβ25-35-induced PC12 cells injury: significant neuroprotective effects at 5 and 10 µM
[5]
  IC50: 6.5 ± 0.05 µM
[6]
  levels of IL-1β compared with model group: did not obviously decrease
[7]
  cytotoxicity on PC12 cells: did not show any cytotoxicity
[8]
  release volume of NO: significantly decreased

## CCN(CC)C(=O)Oc1cccc2cccnc12 [Compound 3n, Quinolin-8-yl diethylcarbamate]
[1]
  levels of IL-6 compared with model group: significantly decreased
[2]; at 25 μM of compounds
  inhibition at 25 µM: 2.4 ± 0.01%
[3]
  cell viability of BV-2 cells: did not show obvious change
[4]
  neuroprotective effect on Aβ25-35-induced PC12 cells injury: significant neuroprotective effects at 5 and 10 µM
[5]; [11]
  IC50: 9.7 ± 0.07 µM
[6]
  levels of IL-1β compared with model group: did not obviously decrease
[7]
  cytotoxicity on PC12 cells: did not show any cytotoxicity
[8]
  release volume of NO: significantly decreased

## CCN(C)C(=O)Oc1cccc2cccnc12 [Compound 3o, Quinolin-8-yl ethyl(methyl)carbamate]
[2]
  inhibition at 25 µM: 4.1 ± 0.02%
[5]
  IC50: 8.2 ± 0.06 µM

## O=C(Oc1cccc2cccnc12)N1CCOCC1 [Compound 3p, Quinolin-8-yl morpholine-4-carboxylate]
[2]; at 25 μM of compounds
  inhibition at 25 µM: 10.8 ± 0.07%
[5]; [11]
  IC50: 12.6 ± 0.76 µM

## CC(C)N(C(=O)Oc1cccc2cccnc12)C(C)C [Compound 3q, Quinolin-8-yl diisopropylcarbamate]
[2]; at 25 μM of compounds
  inhibition at 25 µM: 1.7 ± 0.01%
[5]; [11]
  IC50: 14.8 ± 0.68 µM

## COc1cc2c(cc1OC)C(=O)C(CC1CCN(Cc3ccccc3)CC1)C2 (stereo not drawn) [Donepezil, reference compound]
[9]
  ACh activity (level): 14.0 pmol/L

## CCN(C)C(=O)Oc1cccc([C@H](C)N(C)C)c1 [Rivastigmine, reference compound]
[10]; 0.1*IC50, diluted
  hBuChE activity (% control): 46.9 % control
[10]; 0.1 × IC50, 120 min
  hBuChE activity restored: 62.3%
[10]; 0.1 × IC50, 240 min
  hBuChE activity restored: 121.8%
[10]; 1*IC50, diluted
  hBuChE activity (% control): 52.3 % control
[10]; 1*IC50, undiluted
  hBuChE activity (% control): 51.4 % control
